The results in this text go back to patent publication US9469652B2, “ERK inhibitors” (Eli Lilly and Company, priority 2014, dated 2016).

Each structure is given as a SMILES string.

In assay [1] the test system is RSK1 phosphorylation in HCT116 tumor xenograft. Nature of the assay: In Vivo Target Inhibition (IVTI) Assay (pRSK1 ELISA Assay). The arrangement: species or system female athymic nude mice. The conditions noted are these: oral dosing. The protocol: The purpose of this assay is to measure the ability of a test compound to inhibit ERK1/2 substrate phosphorylation in an animal model Implant female athymic nude mice (22-25 g) from Harlan Laboratories with 5×10e^6 HCT116 colorectal cancer cells (ATCC, #CCL-247) subcutaneously in the right flank region in 200 μL of 1:1 Hank's Balanced Salt Solution (HBSS)+Matrigel solution. Measure tumor growth and body weight twice per week beginning the seventh day after the implantation. When tumor sizes reach 300-500 mm^3, randomize animals and group into groups of five animals. […]
Pulverize tumors in liquid nitrogen and lyse in 1× lysis buffer (MSD, #R60TX-3) containing 1× halt protease & phosphatase inhibitor cocktail (Thermo Scientific, #0861281), 1 mM phenylmethanesulfonyl fluoride (PMSF) (Sigma, #93482-50ML-F) and 1 μM sodium metavanadate (Sigma, #590088) using Matrix D beads (MP Biomedical, #6913-500) in a FastPrep-24™ Cell Disrupter machine (MP Biomedical) in a cold room (4° C.). […] Cool plate to room temperature and measure the absorbance at or near 562 nm on a plate reader (Envision plate reader from Perkin Elmer). Subtract the average 562 nm absorbance measurement of the blank standard replicates from the 562 nm measurements of all other individual standard and unknown (cell or tumor lysate) sample replicates. […]
For orientation: An ELISA detects its analyte on a solid surface through an enzyme-linked reagent.

For assay [2], the system named is human colorectal cancer cells HCT116. Nature of the assay: In vivo combination study, HCT116 KRAS mutant colorectal cancer xenograft model. The settings on record: oral, 28 days, single agent. The method, then: More specifically, the compound of Example 1 is tested in combination with either the pan-RAF inhibitor compound or the CDK4/6 inhibitor compound in HCT116, a KRAS mutant colorectal cancer xenograft model. Also, the compound of Example 1 is tested in combination with either the CDK4/6 inhibitor compound or DC101 in NCI-H441, A549, and NCI-H2122, KRAS mutant non-small cell lung cancer (NSCLC) xenograft models.
The HCT116 combination efficacy study is done in athymic nude rats. Expand human colorectal cancer cells HCT116 (ATCC, #CCL-247) in culture, harvest and inject 5×10e^6 cells in 200 μL of 1:1 HBSS+matrigel solution subcutaneously on to the rear right flank of female NIH nude rats (120-145 gm, Taconic Farms). Measure tumor growth and body weight twice per week beginning the seventh day after the implantation. When average tumor sizes reach 200-300 mm^3, randomize animals and group into groups of five to seven animals. Prepare test compound in an appropriate vehicle (see below) and administer by oral gavage for 21 to 28 days. Tumor response is determined by tumor volume measurement performed twice a week during the course of treatment. Vehicle used in this study is 1% HEC (hydroxy ethyl cellulose)/0.25% Tween® 80/0.05% Antifoam. The compound of Example 1 and the pan-RAF inhibitor compound are formulated in 1% HEC/0.25% Tween® 80/0.05% Antifoam. The CDK4/6 inhibitor compound is formulated in 1% HEC in 25 mM Sodium phosphate buffer, pH 2.

Regarding `Cn1nccc1Nc1nccc(-c2cc3c(s2)C(C)(C)N(CCN2CCOCC2)C3=O)n1` [Example 1, 6,6-Dimethyl-2-{2-[(1-methyl-1H-pyrazol-5-yl)amino]pyrimidin-4-yl}-5-[2-(morpholin-4-yl)ethyl]-5,6-dihydro-4H-thieno[2,3-c]pyrrol-4-one], the “TED50, pRSK1 inhibition in tumor” value in assay [1] is given as 16 mg/kg. Moreover, in assay [2] (10 mg/kg QD), the “Delta T/C %” value is recorded as 48% and the TGI % was 52%. Moreover, in assay [2] (20 mg/kg QD), the “Delta T/C %” value was 36% and the TGI % came to 64%.
